Data from patent US20090082304A1, “Methods of Treating Hematological Malignancies with Nucleoside Analog Drugs” (NORTHWESTERN UNIVERSITY, priority 2004, published 2009).

Assays:
[1] = system: PKC-8; assay: Phosphorylation status of PKC-8; format: cell-based
[2] = system: MM.1 S cells; assay: Cell cycle analysis by flow cytometry (subG1 fraction); format: cell-based; details: 10 μM, up to 4 hours
Protocol: MM1 S cells were incubated with 10 μM 8-NH2-adenosine 0.5, 1, 2, 4 or 24 hours. To determine the distribution of cells within the cell cycle, I×10^6 MM. I S cells were pelleted (500×g for 5 minutes at 4° C.), and washed twice in ice-cold PBS, fixed in ice-cold 70% ethanol, and stored at 4° C. until analyzed. Before analysis by flow cytometry, the fixed cells were pelleted, washed in PBS, and resuspended in ice-cold flow buffer (PBS containing 0.5% Tween 20, 15 μg/mL propidium iodide, and 5 μg/mL DNase-free RNase). The stained cells were analyzed using an Epics Profile II flow cytometer (Coulter Electronics, Inc., Hialeah, Fla.). FIG. 2 provides the results of this experiment. To ascertain whether the changes in phosphorylation levels of these key signaling molecules is a direct result of cell death, parallel cultures were assessed for cellular viability by cell cycle analysis. Cells undergoing apoptosis have a reduced DNA content caused by cleavage and loss of small DNA fragments. Therefore, apoptotic cells are identified as those cells in the subG1 fraction of the cell cycle.

## Nc1ncnc2c1nc(N)n2[C@@H]1O[C@H](CO)[C@@H](O)[C@H]1O [8-NH2-Ado, 8-amino-adenosine]
[1]
  phosphorylation status of PKC-8: unaltered
[2]
  subG1 fraction versus untreated cells: no differences
